The supplement of paper PMC4862054
Where “and” joins values, the source holds several entries; their conditions need not be identical. Equal entries are not always repeated.

Assays:
Conditions in all cases: incubation time: 72 h
[1] = tested on: HCC1937; assay: drug sensitivity score (DSS), CellTiter-Blue viability (DSS (AUC-based score)); higher = stronger viability inhibition; extreme values may be limits of the assay
Experimental: (§1)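 DSRT with the CellTiter-Blue (resazurin reduction) viability readout, fluorescence 560/590 nm, 72 h incubation. Plates were normalised to DMSO and benzethonium chloride controls. DSS is computed from the area under the fitted dose-response curve (5 or 9 concentrations).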

[2] = tested on: MDA-MB-453; assay: as above
Experimental: as §1

[3] = tested on: CAL-51; assay: as above
Experimental: as §1

[4] = tested on: MDA-MB-468; assay: as above
Experimental: as §1

[5] = tested on: DU-4475; assay: as above
Experimental: as §1

[6] = tested on: MDA-MB-231; assay: as above
Experimental: as §1

[7] = tested on: MFM-223; assay: as above
Experimental: as §1

[8] = tested on: BT-549; assay: as above
Experimental: as §1

[9] = tested on: HCC1143; assay: as above
Experimental: as §1

[10] = tested on: CAL-85-1; assay: as above
Experimental: as §1

[11] = tested on: CAL-148; assay: as above
Experimental: as §1

[12] = tested on: SK-BR-3; assay: as above
Experimental: as §1

[13] = tested on: BT-474; assay: as above
Experimental: as §1

[14] = tested on: HDQ-P1; assay: as above
Experimental: as §1

[15] = tested on: HCC1937; assay: normalised viability (% of control), CellTiter-Blue; higher = more viable cells (100 = DMSO, 0 = benzethonium chloride kill control)
Experimental: (§2)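 DSRT, CellTiter-Blue viability, 72 h incubation. Signal is normalised to DMSO and benzethonium chloride controls. Value is the normalised response at dose 1.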

[16] = tested on: MDA-MB-453; assay: as above
Experimental: as §2

[17] = tested on: HCC1599; assay: as above
Experimental: as §2

[18] = tested on: CAL-51; assay: as above
Experimental: as §2

[19] = tested on: MDA-MB-468; assay: as above
Experimental: as §2

[20] = tested on: MFM-223; assay: as above
Experimental: as §2

[21] = tested on: BT-549; assay: as above
Experimental: as §2

[22] = tested on: CAL-120; assay: as above
Experimental: as §2

[23] = tested on: MDA-MB-436; assay: as above
Experimental: as §2

[24] = tested on: HCC1143; assay: as above
Experimental: as §2

[25] = tested on: CAL-85-1; assay: as above
Experimental: as §2

[26] = tested on: Hs578T; assay: as above
Experimental: as §2

[27] = tested on: CAL-148; assay: as above
Experimental: as §2

Row | Compound | drug sensitivity score [1] | drug sensitivity score [2] | drug sensitivity score [3] | drug sensitivity score [4] | drug sensitivity score [5] | drug sensitivity score [6] | drug sensitivity score [7] | drug sensitivity score [8] | drug sensitivity score [9] | drug sensitivity score [10] | drug sensitivity score [11] | drug sensitivity score [12] | drug sensitivity score [13] | drug sensitivity score [14] | normalised viability ([15]; 1 nM) | normalised viability ([16]; 1 nM) | normalised viability ([17]; 1 nM) | normalised viability ([18]; 1 nM) | normalised viability ([19]; 1 nM) | normalised viability ([20]; 1 nM) | also measured
1 | C[C@]12CC[C@H](O)CC1=CC[C@@H]1[C@@H]2CC[C@]2(C)C(c3cccnc3)=CC[C@@H]12 [Abiraterone] | 0 | 0 | 0 | 0 | 0 | 0 | 0 | 0 | 0 | 0 | 0 | 0 | 0 | 0 |  |  |  |  |  |  | normalised viability ([15]; 0.5 nM): 99.8%; normalised viability ([16]; 0.5 nM): 108%; normalised viability ([17]; 0.5 nM): 102%; normalised viability ([18]; 0.5 nM): 97.6%; normalised viability ([19]; 0.5 nM): 102%; normalised viability ([20]; 0.5 nM): 90.2%; normalised viability ([21]; 0.5 nM): 111%; normalised viability ([22]; 0.5 nM): 78.9%; normalised viability ([23]; 0.5 nM): 114%; normalised viability ([24]; 0.5 nM): 86.6%; normalised viability ([25]; 0.5 nM): 82.8%; normalised viability ([26]; 0.5 nM): 95.3%; normalised viability ([27]; 0.5 nM): 103%
2 | CNNCc1ccc(C(=O)NC(C)C)cc1 [Procarbazine] | 0 | 0 | 0 | 0 | 0 | 0 | 0 | 0 | 0 | 0 | 0 | 0 | 0 | 0 | 78.9% | 110% | 84.6% | 100% | 104% | 102% | normalised viability ([21]; 1 nM): 113%; normalised viability ([22]; 1 nM): 97%; normalised viability ([23]; 1 nM): 99.3%; normalised viability ([24]; 1 nM): 103%; normalised viability ([25]; 1 nM): 92.4%; normalised viability ([26]; 1 nM): 107%; normalised viability ([27]; 1 nM): 108%
3 | O=C1NC(=O)[C@@H](c2cn3c4c(cccc24)CCC3)[C@@H]1c1c[nH]c2ccccc12 [Tivantinib] | 8.31 | 6.08 | 2.15 | 1.21 | 1.35 | 1.91 | 0 | 4.05 | 0 | 4.04 | 1.69 | 2.61 | 1.07 | 0 |  |  |  |  |  |  | normalised viability ([15]; 0.1 nM): 86.3%; normalised viability ([16]; 0.1 nM): 101%; normalised viability ([17]; 0.1 nM): 85.6%; normalised viability ([18]; 0.1 nM): 106%; normalised viability ([19]; 0.1 nM): 110%; normalised viability ([20]; 0.1 nM): 85.6%; normalised viability ([21]; 0.1 nM): 105%; normalised viability ([22]; 0.1 nM): 90.1%; normalised viability ([23]; 0.1 nM): 127%; normalised viability ([24]; 0.1 nM): 108%; normalised viability ([25]; 0.1 nM): 101%; normalised viability ([26]; 0.1 nM): 101%; normalised viability ([27]; 0.1 nM): 110%
4 | Cn1cncc1[C@@](N)(c1ccc(Cl)cc1)c1ccc2c(c1)c(-c1cccc(Cl)c1)cc(=O)n2C [Tipifarnib] | 15.3 | 10.5 | 9.74 | 3.09 | 18.5 | 11.7 | 7.2 | 5.66 | 14.7 | 6.87 | 18.8 | 12.6 | 5.35 | 13.3 | 89% | 94.7% | 90.4% | 98.4% | 105% | 87.6% | normalised viability ([21]; 1 nM): 120%; normalised viability ([22]; 1 nM): 78%; normalised viability ([23]; 1 nM): 98.5%; normalised viability ([24]; 1 nM): 85.6%; normalised viability ([25]; 1 nM): 81.1%; normalised viability ([26]; 1 nM): 93.2%; normalised viability ([27]; 1 nM): 102%
5 | CC(C)(C#N)c1cc(Cn2cncn2)cc(C(C)(C)C#N)c1 [Anastrozole] | 0 | 0 | 0 | 0 | 0 | 0 | 0 | 0 | 0 | 0 | 0 | 0 | 0 | 0 | 94.6% | 98.4% | 107% | 108% | 97.9% | 98.8% | normalised viability ([21]; 1 nM): 122%; normalised viability ([22]; 1 nM): 88.8%; normalised viability ([23]; 1 nM): 99%; normalised viability ([24]; 1 nM): 83.4%; normalised viability ([25]; 1 nM): 94.1%; normalised viability ([26]; 1 nM): 97.2%; normalised viability ([27]; 1 nM): 99%
6 | CC[C@]1(O)C[C@H]2CN(CCc3c([nH]c4ccccc34)[C@@](C(=O)OC)(c3cc4c(cc3OC)N(C=O)[C@H]3[C@@](O)(C(=O)OC)[C@H](OC(C)=O)[C@]5(CC)C=CCN6CC[C@]43[C@@H]65)C2)C1 [Vincristine] | 23.5 and 35 | 19.7 and 30.5 | 17.5 and 26.3 | 23.8 and 23.7 | 18.9 and 28.9 | 27 and 34.4 | 16.9 and 22.7 | 25.5 and 32 | 22.6 and 27.4 | 17.9 and 25 | 23 and 26.8 | 33.6 and 41.1 |  | 17.8 and 20.6 | 79.4% | 88.5% | 93.9% | 93.8% | 49.2% | 91% | normalised viability ([15]; 0.1 nM): 74.4%; normalised viability ([16]; 0.1 nM): 107%; normalised viability ([17]; 0.1 nM): 119%; normalised viability ([18]; 0.1 nM): 103%; normalised viability ([19]; 0.1 nM): 87.5%; normalised viability ([20]; 0.1 nM): 99.7%; normalised viability ([21]; 0.1 nM): 93.1%; normalised viability ([21]; 1 nM): 93.5%; normalised viability ([22]; 0.1 nM): 77.9%; normalised viability ([22]; 1 nM): 57.7%; normalised viability ([23]; 0.1 nM): 89.4%; normalised viability ([23]; 1 nM): 109%; normalised viability ([24]; 0.1 nM): 80%; normalised viability ([24]; 1 nM): 89.6%; normalised viability ([25]; 0.1 nM): 86.5%; normalised viability ([25]; 1 nM): 91.8%; normalised viability ([26]; 0.1 nM): 120%; normalised viability ([26]; 1 nM): 92.6%; normalised viability ([27]; 0.1 nM): 87.6%; normalised viability ([27]; 1 nM): 108%
